US10246465B2 (priority 2014, dated 2019)

Molecular target: human σ1 receptor (Homo sapiens, UniProt Q99720)
Assay: biochemical
Format: binding
Set-up: μ and σ1 dual binding: key to the marks not given beside the values
Conditions: one combined class from Ki at human σ1 receptor (A1) and Ki at human μ-opioid receptor (A2)
Procedure: Human σ1 Receptor Radioligand Assay
The assay was carried out with 7 μg of membrane suspension, 5 nM of [^3H](+)-pentazocine in either absence or presence of either buffer or 10 μM Haloperidol for total and non-specific binding, respectively. Binding buffer contained Tris-HCl 50 mM at pH 8. Plates were incubated at 37° C. for 120 minutes. After the incubation period, the reaction mix was then transferred to MultiScreen HTS, FC plates (Millipore), filtered and plates were washed 3 times with ice-cold 10 mM Tris-HCL (pH7.4). Filters were dried and counted at approximately 40% efficiency in a MicroBeta scintillation counter (Perkin-Elmer) using EcoScint liquid scintillation cocktail

Chain of human σ1 receptor (Q99720 whole entry): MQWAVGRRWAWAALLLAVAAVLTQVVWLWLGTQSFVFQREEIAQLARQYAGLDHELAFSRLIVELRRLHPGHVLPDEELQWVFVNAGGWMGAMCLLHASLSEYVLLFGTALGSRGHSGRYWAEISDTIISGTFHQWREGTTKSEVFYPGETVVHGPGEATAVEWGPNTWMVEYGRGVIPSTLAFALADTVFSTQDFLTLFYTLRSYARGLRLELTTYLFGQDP

**Q.** Which “μ and σ1 dual binding” value does the source give for `CCN1CC2(CCN(CCc3ncccc3F)CC2)OC2(CC2)C1=O.Cl` [Example 3, 12-ethyl-8-[2-(3-fluoropyridin-2-yl)ethyl]-4-oxa-8,12-diazadispiro[2.1.5.3]tridecan-13-one hydrochloride] here?
**A.** ++

**Q.** Which “μ and σ1 dual binding” value does the source give for `CCN1CC2(CCN(CCc3ccc(O)cc3)CC2)OC2(CC2)C1=O.Cl` [Example 62, 12-ethyl-8-(4-hydroxyphenethyl)-4-oxa-8,12-diazadispiro[2.1.5.3]tridecan-13-one hydrochloride] here?
**A.** ++

**Q.** With `C[C@H]1OC2(CCN(CCc3ccccc3C(F)(F)F)CC2)CN(C)C1=O.Cl` [Example 48, (R)-2,4-dimethyl-9-(2-(trifluoromethyl)phenethyl)-1-oxa-4,9-diazaspiro[5.5]undecan-3-one hydrochloride] as the compound, how does the “μ and σ1 dual binding” value read?
**A.** ++

**Q.** Which “μ and σ1 dual binding” value does the source give for `C[C@H]1OC2(CCN(CCc3cccc(F)c3F)CC2)CN(C2CC2)C1=O` [Example 91, (R)-4-cyclopropyl-9-(2,3-difluorophenethyl)-2-methyl-1-oxa-4,9-diazaspiro[5.5]undecan-3-one] here?
**A.** ++

**Q.** For `C[C@H]1OC2(CCN(CCc3cccc(F)c3F)CC2)CN(C)C1=O` [Example 74, (R)-9-(2,3-difluorophenethyl)-2,4-dimethyl-1-oxa-4,9-diazaspiro[5.5]undecan-3-one], which “μ and σ1 dual binding” value is on record?
**A.** ++

**Q.** Which “μ and σ1 dual binding” value does the source give for `CN1CC2(CCN(CCc3ccccc3)CC2)O[C@H](CCO)C1=O` [Example 94, (R)-2-(2-hydroxyethyl)-4-methyl-9-phenethyl-1-oxa-4,9-diazaspiro[5.5]undecan-3-one] here?
**A.** ++

**Q.** `CCN1CC2(CCN(CCc3ccncc3)CC2)OC2(CC2)C1=O` [Example 23, 12-ethyl-8-[2-(pyridin-4-yl)ethyl]-4-oxa-8,12-diazadispiro[2.1.5.3]tridecan-13-one] was tested. Which “μ and σ1 dual binding” value did it give?
**A.** ++

**Q.** How did the “μ and σ1 dual binding” value turn out when `CCN1CC2(CCN(CCc3ccccc3O)CC2)OC2(CC2)C1=O` [Example 60, 12-ethyl-8-(2-hydroxyphenethyl)-4-oxa-8,12-diazadispiro[2.1.5.3]tridecan-13-one] was run?
**A.** ++

**Q.** Which “μ and σ1 dual binding” value does the source give for `CN1CC2(CCN(CCc3ccccc3)CC2)OC(C)(C)C1=O.Cl` [Example 54, 2,2,4-trimethyl-9-phenethyl-1-oxa-4,9-diazaspiro[5.5]undecan-3-one hydrochloride] here?
**A.** ++

**Q.** For `CCN1CC2(CCN(CCc3cccc(NC(C)=O)c3)CC2)OC2(CC2)C1=O` [Example 57, N-[3-(2-{12-ethyl-13-oxo-4-oxa-8,12-diazadispiro[2.1.5.3]tridecan-8-yl}ethyl)phenyl]acetamide], which “μ and σ1 dual binding” value is on record?
**A.** ++

**Q.** How did the “μ and σ1 dual binding” value turn out when `CN1CC2(CCN(CCc3ccccc3F)CC2)OC2(CC2)C1=O.Cl` [Example 29, 8-[2-fluorophenethyl]-12-methyl-4-oxa-8,12-diazadispiro[2.1.5.3]tridecan-13-one hydrochloride] was run?
**A.** ++

**Q.** Which “μ and σ1 dual binding” value does the source give for `CCN1CC2(CCN(CCc3cccc(N)n3)CC2)OC2(CC2)C1=O` [Example 6, 8-[2-(6-aminopyridin-2-yl)ethyl]-12-ethyl-4-oxa-8,12-diazadispiro[2.1.5.3]tridecan-13-one] here?
**A.** ++

**Q.** With `C[C@H]1OC2(CCN(CCc3cc(F)ccc3F)CC2)CN(C)C1=O` [Example 81, (R)-9-(2,5-difluorophenethyl)-2,4-dimethyl-1-oxa-4,9-diazaspiro[5.5]undecan-3-one] as the compound, how does the “μ and σ1 dual binding” value read?
**A.** ++

**Q.** `CCN1CC2(CCN(CCc3cccc(NC(N)=O)c3)CC2)OC2(CC2)C1=O` [Example 58, [3-(2-{12-ethyl-13-oxo-4-oxa-8,12-diazadispiro[2.1.5.3]tridecan-8-yl}ethyl)phenyl]urea] was tested. Which “μ and σ1 dual binding” value did it give?
**A.** ++

**Q.** For `CN1CC2(CCN(CCc3ccccc3)CC2)O[C@H](Cc2ccccc2)C1=O` [Example 95, (R)-2-benzyl-4-methyl-9-phenethyl-1-oxa-4,9-diazaspiro[5.5]undecan-3-one], which “μ and σ1 dual binding” value is on record?
**A.** ++

**Q.** Which “μ and σ1 dual binding” value does the source give for `CCN1CC2(CCN(CCc3ncccc3Cl)CC2)OC2(CC2)C1=O.Cl` [Example 5, 8-[2-(3-chloropyridin-2-yl)ethyl]-12-ethyl-4-oxa-8,12-diazadispiro[2.1.5.3]tridecan-13-one hydrochloride] here?
**A.** ++

**Q.** `CC(C)N1CC2(CCN(CCc3c(F)cccc3F)CC2)O[C@H](C)C1=O.Cl` [Example 49, (R)-9-(2,6-difluorophenethyl)-4-isopropyl-2-methyl-1-oxa-4,9-diazaspiro[5.5]undecan-3-one hydrochloride] was tested. Which “μ and σ1 dual binding” value did it give?
**A.** ++

**Q.** For `CCN1CC2(CCN(CCc3cccc(C#N)c3)CC2)OC2(CC2)C1=O.Cl` [Example 27, 3-(2-{12-ethyl-13-oxo-4-oxa-8,12-diazadispiro[2.1.5.3]tridecan-8-yl}ethyl)benzonitrile hydrochloride], which “μ and σ1 dual binding” value is on record?
**A.** ++

**Q.** For `CCN1CC2(CCN(CCc3cccc(F)c3F)CC2)OC(C)(C)C1=O` [Example 89, 9-(2,3-difluorophenethyl)-4-ethyl-2,2-dimethyl-1-oxa-4,9-diazaspiro[5.5]undecan-3-one], which “μ and σ1 dual binding” value is on record?
**A.** ++

**Q.** For `CCN1CC2(CCN(CCc3cccc(F)c3F)CC2)O[C@H](C)C1=O` [Example 87, (R)-9-(2,3-difluorophenethyl)-4-ethyl-2-methyl-1-oxa-4,9-diazaspiro[5.5]undecan-3-one], which “μ and σ1 dual binding” value is on record?
**A.** ++

**Q.** `CCN1CC2(CCN(CCc3ccc(C(=O)NC)cc3)CC2)OC2(CC2)C1=O.Cl` [Example 59, 4-(2-{12-ethyl-13-oxo-4-oxa-8,12-diazadispiro[2.1.5.3]tridecan-8-yl}ethyl)-N-methylbenzamide hydrochloride] was tested. Which “μ and σ1 dual binding” value did it give?
**A.** ++

**Q.** With `CC1(C)OC2(CCN(CCc3cccc(F)c3F)CC2)CN(C2CC2)C1=O` [Example 85, 4-cyclopropyl-9-(2,3-difluorophenethyl)-2,2-dimethyl-1-oxa-4,9-diazaspiro[5.5]undecan-3-one] as the compound, how does the “μ and σ1 dual binding” value read?
**A.** ++

**Q.** How did the “μ and σ1 dual binding” value turn out when `C[C@H]1OC2(CCN(CCc3ccccc3OC(F)(F)F)CC2)CN(C)C1=O.Cl` [Example 45, (R)-2,4-dimethyl-9-(2-(trifluoromethoxy)phenethyl)-1-oxa-4,9-diazaspiro[5.5]undecan-3-one hydrochloride] was run?
**A.** ++

**Q.** `CCN1CC2(CCN(CCc3cc(C(F)(F)F)ccn3)CC2)OC2(CC2)C1=O.Cl` [Example 4, 12-ethyl-8-{2-[4-(trifluoromethyl)pyridin-2-yl]ethyl}-4-oxa-8,12-diazadispiro[2.1.5.3]tridecan-13-one hydrochloride] was tested. Which “μ and σ1 dual binding” value did it give?
**A.** ++

Same assay, conditions: one combined class from Ki at human σ1 receptor (A1) and Ki at human μ-opioid receptor (A2); read-out: μ and σ1 dual binding

**Q.** With `CCN1CC2(CCN(CCc3cccc(N)c3)CC2)OC2(CC2)C1=O` [Example 56, 8-(3-aminophenethyl)-12-ethyl-4-oxa-8,12-diazadispiro[2.1.5.3]tridecan-13-one] as the compound, how does the Ki read?
**A.** > 500 nM
